What is called Ki is a dissociation constant, usually derived from enzyme kinetics or from competition with a known ligand. Read a high Ki as a looser hold on the target.

In this experiment the target is T1, human cloned 5-HT6 receptors (Homo sapiens, UniProt P50406).
T1 construct: expressed in transfected cells; host or cells: HeLa cells (membrane preparation)
Nature of the experiment: 5-HT6 binding affinity, [3H]-LSD displacement. As to conditions: membranes of Hela cells expressing human cloned 5-HT6 receptors; [3H]-LSD 3.0 nM; 120 min, room temperature.

T1 sequence (P50406 whole entry): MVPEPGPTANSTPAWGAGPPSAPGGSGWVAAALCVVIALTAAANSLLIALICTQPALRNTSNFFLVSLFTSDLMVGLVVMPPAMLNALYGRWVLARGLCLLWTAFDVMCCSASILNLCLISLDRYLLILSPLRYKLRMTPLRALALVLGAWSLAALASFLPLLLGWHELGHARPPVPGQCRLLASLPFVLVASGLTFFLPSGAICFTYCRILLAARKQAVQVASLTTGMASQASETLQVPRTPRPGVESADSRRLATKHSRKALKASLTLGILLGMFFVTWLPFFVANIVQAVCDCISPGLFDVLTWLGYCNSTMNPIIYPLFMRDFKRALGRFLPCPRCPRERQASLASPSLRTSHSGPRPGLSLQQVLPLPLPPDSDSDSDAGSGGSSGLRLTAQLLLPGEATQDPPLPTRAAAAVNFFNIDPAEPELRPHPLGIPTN
Method: The affinity of test compounds for the serotonin 5-HT6 receptor is evaluated in the following manner. Cultured Hela cells expressing human cloned 5-HT6 receptors are harvested and centrifuged at low speed (1,000× g) for 10.0 min to remove the culture media. The harvested cells are suspended in half volume of fresh physiological phosphate buffered saline solution and recentrifuged at the same speed. This operation is repeated. The collected cells are then homogenized in ten volumes of 50 mM Tris.HCl (pH 7.4) and 0.5 mM EDTA. The homogenate is centrifuged at 40,000× g for 30.0 min and the precipitate is collected. The obtained pellet is resuspended in 10 volumes of Tris.HCl buffer and recentrifuged at the same speed. The final pellet is suspended in a small volume of Tris.HCl buffer and the tissue protein content is determined in aliquots of 10-25 μl volumes. […]
The bound complex caught on the filter disk is allowed to air dry and the radioactivity is measured in a Packard TopCount® equipped with six photomultiplier detectors, after the addition of 40.0 μl Microscint®-20 scintillant to each shallow well. The unifilter plate is heat-sealed and counted in a PackardTopCount® with a tritium efficiency of 31.0%.
Binding in the presence of varying concentrations of test compound is expressed as a percentage of specific binding in the absence of test compound. […]

On to `O=C(O)Cc1cn(S(=O)(=O)c2c(Cl)nc3sccn23)c2ccccc12` [Example 2, {1-[(6-Chloroimidazo[2,1-b][1,3]thiazol-5-yl)sulfonyl]-1H-indol-3-yl}acetic acid], for which the Ki amounted to 248 nM.

The values above are taken from patent US7498327B2, “Indolylalkylamine metabolites as 5-hydroxytryptamine-6 ligands” (Wyeth, priority 2004, dated 2009).
